Assay results: patent publication US6352980B1, “Estrenes for inducting hypothalamic effects” (Pherin Pharmaceuticals, Inc., priority 1991, dated 2002)
Entries after “also recorded” stand apart in the source; their conditions may differ.

Columns and labels:
[1] = system: VNO; conditions: 2% lidocaine applied to the respiratory epithelium of the nasal septum; cited from earlier work
[2] = system: VNO; assay: Comparison of change in receptor potential induced by two Estrene steroids (Example 55); type: in vivo, human; conditions: 60 picograms; a subject; FIG. 5
Description: 60 picograms of each steroid and of a propylene glycol control were administered to a subject as described in Example 21.

[3] = system: VNO; assay: Electro-vomeronasogram (EVG) (Example 57); type: in vivo, human; conditions: male subjects (ages 20 to 38); 100 fmoles; 1 second pulses; FIG. 6A
Description: The following electrophysiological studies were performed in 60 clinically normal human volunteers of both sexes (30 male and 30 female) whose ages ranged from 20 to 45 years. No anesthetics were used, and female subjects were excluded if pregnant.
The stimulation and recording system consists of a “multifunctional miniprobe” described elsewhere (Monti-Bloch, L. and Grosser, B. l. (1991) “Effect of putative pheromones on the electrical activity of the human vomeronasal organ and olfactory epithelium,” J. Steroid Biochem. Molec. Biol. 39:573-582.). The recording electrode is a 0.3 mm silver ball attached to a small (0.1 mm) silver wire insulated with Teflon© the surface of the electrode is first treated to produce a silver chloride interface, and is then covered with gelatin It is positioned within a small caliber Teflon© catheter (dia=5 mm) such that the tip of the electrode protrudes approximately 2 mm. The Teflon© catheter is 10 cm in length and constitutes the terminal extension for a multichannel delivery system which delivers a continuous air stream carrying discreet pulses of chemosensory stimuli. The air stream first passes into a small chamber and is bubbled through a solution containing either a vomeropherin or an olfactant in a diluent or the diluent alone. A solenoid is used to rapidly redirect the air stream from the chamber to a route which bypasses the chamber. This creates a discreet pulse of stimulant in the air stream. A second, outer Teflon® tube with a diameter of 2 mm surrounds the catheter-electrode assemblage, and its central end is connected to an aspirator that provides continuous suction of 3 ml/s. This concentric arrangement of the outer suction tube allows the emitted chemosensory stimuli to be localized to an area we call a “minifield” (approx. dia=1 mm), and it avoids diffusion of substances either to the area outside the intended stimulation site or into the respiratory system. The entire stimulating and recording assemblage may be positioned either on the neurosensory epithelium within the VNO, or on the surface of the olfactory or respiratory epithelium.
Electro-vomeronasogram (EVG): Recordings are carried out in a quiet room with the subject supine; the multi-functional miniprobe is initially stabilized within the nasal cavity using a nasal retractor placed in the vestibule. Reference and ground electrodes consist of silver discs (8 mm), both of which are positioned on the glabella.
The entrance to the VNO, or vomeronasal pit, is identified by first dilating the nasal aperture and vestibule. A 6× magnifying binocular loupe with halogen illumination is then used to introduce the tip of the Teflon® catheter and recording electrode assemblage into the VNO opening where it is stabilized at an approximate depth of 1 mm within the vomeronasal passage. Optimal placement of the recording electrode is signaled after testing for an adequate depolarization in response to a test substance.
Electrical signals from the recording electrode are fed to a DC amplifier after which they are digitized, computer monitored, and stored. The peak-to-peak amplitude of the signals is measured, and the area under the depolarization wave is integrated, while continuously monitoring the signal both on the computer screen and on a digital oscilloscope. Artifacts produced by respiratory movements are deleted by training the subjects to practice mouth breathing with velopharyngeal closure.
Chemosensory Stimulants: Olfactory test substances are cineole, and 1-carvone; vomeropherins are A, B, C, E and F. (Vomeropherins were supplied by Pherin Corporation, Menlo Park, Calif.), Samples of vomeropherins In. concentration of 25-800 fmoles are delivered in the continuous air stream for durations from 300 milliseconds to 1 second. Usually, intervals of 3 to 5 minutes separated each series of short test pulses. […]

[4] = system: VNO; assay: Cortical activity (EEG) on VNO stimulation with vomeropherins; type: in vivo, human; conditions: males; 200 fmoles; air pulses 300 ms to 1 sec; FIG. 6E
Description: (§1) Cortical evoked activity was induced by VNO stimulation with vomeropherins, and olfactory stimulation with odorants delivered in 300 ms air pulses. It was recorded using standard electroencephalographic (EEG) electrodes placed at positions Cz-A1 and Tz-A1 of the international […] system; the ground electrode was placed on the mastoid process. Electrodermal activity (EDA) was recorded using standard 8 mm silver electrodes in contact with palmar skin of the medial and ring fingers, respeCtively, through a conductive gel interface. Skin temperature (ST) was recorded by a small (1.0 mm) thermistor probe placed in the right ear lobe. Peripheral arterial pulse (PAP) was monitored with a plethysmograph attached to the tip of the index finger. Respiratory frequency (RF) was measured with an adjustable strain gauge placed around the lower thorax. All electrical signals were DC amplified, digitized (MP-100, Biopac Systems) and continuously monitored utilizing a computer.
(§2) Statistical Analysis: EVGs or EOGS, peak-to-peak changes and frequency changes of other parameters were measured and statistically analyzed. The significance of the results was determined by either using paired t-tests or analysis of variance (ANOVA).
[…] […] Synchronization of the EEG was sustained for 1.5 to 2.7 minutes after application of a single pulse of active substance.

[5] = system: VNO; assay: Skin temperature (ST) on vomeropherin stimulation of the VNO; type: in vivo, human; conditions: 30 male subjects; p<0.01; FIG. 6G
Description: as §1, §2
In female subjects vomeropherins produced changes in EDA and ST with a greater standard deviation than in males.

[6] = system: human vomeronasal organ (VNO); assay: Local electrical potential of the VNO on localized gaseous stimulation (Example 52); type: in vivo; conditions: for VNO response, males versus females (sexual dimorphism): FIG. 2B; for VNO response: male subjects, about 25 pg to the nasal cavity, response measured in mV×s, FIG. 2A
Description: (§3) A non-invasive method has been employed to record local electrical potentials from the human vomeronasal organ (VNO) and from the olfactory epithelium (OE). Localized gaseous stimulation was applied to both nasal structures at different instances using specially designed catheter/electrodes connected to a multichannel drug delivery system.
(§4) The study was performed on ten clinically normal (screened) volunteers—2 males and 8 females, ranging in age from 18 to 85 years. The studies were conducted without general or local anesthetics.
(§5) The catheter/electrodes were designed to deliver a localized stimulus and simultaneously record the response. In the case of VNO recording, the right nasal fosa of the subject was explored using a nasoscope (nasal specula) and the vomeronasal opening was localized close to the intersection of the anterior edge of the vomer and the nasal floor. The catheter/electrode was gently driven through the VNO-opening and the electrode tip placed in the organ's lumen at 1 to 3 mm from the opening. The nasoscope was then removed. In the case of the OE, recording the procedure was similar except the positioning of the catheter/electrode was gently placed deep in the lateral part of the medial nasal duct, reaching the olfactory mucosa.
Localized gaseous stimulation was done through the catheter/electrode. A constant stream of clean, nonodorous, humidified air at room temperature was continuously passed through a channel of the stimulating system. The stimulating ligand substances were diluted in propylene glycol, mixed with the humidified air, and puffed for from 1 to 2 seconds through the catheter/electrode. It is estimated that this administration provides about 25 pg of steroid-ligand to the nasal cavity.
(§6) The response is measured in millivolt-seconds (mV×s).

[7] = system: olfactory epithelium (OE); assay: Local electrical potential of the olfactory epithelium on localized gaseous stimulation (Example 52); type: in vivo, human; conditions: both males and females; compared to clove; FIG. 2C
Description: as §3, §4, §5
Localized gaseous stimulation was done through the catheter/electrode. […]
as §6

[8] = system: VNO; assay: Electrodermal activity (EDA) on vomeropherin stimulation of the VNO; type: in vivo, human; conditions: male subjects, n=30; p<0.01; FIG. 6C
Description: as §1, §2
Reflex Effects of Vomeropherins: Studies were conducted to determine the central nervous system (CNS) reflex responses to vomeropherin stimulation of the VNO. The sexually dimorphic local responses induced by vomeropherins (FIGS. 6A and B) were mirrored in the autonomic response of male & female subjects. […] In female subjects.

Compound	effect of local anesthetic on the EVG [1]	change in receptor potential [2]	EVG average response (mean) [3]	alpha cortical activity [4]	skin temperature (ST) [5]	VNO response, males versus females (sexual dimorphism) [6]	VNO response [6]	OE response [7]	skin resistance (electrodermal activity, EDA) [8]
CCN(CC)CC(=O)Nc1c(C)cccc1C [lidocaine]	neither blocks nor diminishes the EVG								
COc1ccc2c(c1)CC[C@@H]1[C@@H]2CC[C@]2(C)C=CC[C@@H]12 [D, 3-Methoxy-Estra-1,3,5(10)16-tetraene]		greater change in receptor potential than did 1,3,5(10),16-Estratetraen-3-yl acetate	15.1 mV	significantly increased alpha cortical activity; also recorded: strongest effect	significant temperature decrease				
C[C@@]12C=CC[C@H]1[C@@H]1CCc3cc(O)ccc3[C@H]1CC2 [C, 1,3,5(10),16-Estratetraen-3-ol]			6.4 mV	significantly increased alpha cortical activity	significant increase in skin temperature	approximately four times as strong in males as it is in females	significantly stronger VNO response in males than do the other compounds tested	low compared to a strong odorant such as clove	decreased skin resistance
C[C@]12CC[C@@H]3c4ccc(O)cc4CC[C@H]3[C@@H]1C[C@@H](O)[C@@H]2O [1,3,5(10)-Estratrien-3,16α,17β-triol, reference compound]						approximately four times as strong in males as it is in females	strong VNO response	low compared to a strong odorant such as clove	
